The source made the active and inactive calls.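 The calls were made as follows: active = EC50 no more than a set limit of log units above the highest dose; inactive = the rest.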 Some results are limits rather than exact numbers.

This experiment concerns the target S. pyogenes SKKanGAS, kanamycin survival, BacTiterGlo, 6 h. The experiment can be described thus: SKKanGAS survival reduction under kanamycin, dose response, streptokinase promoter inhibitor project, SKKanGAS strain, luminescence, dose confirmation (AID 1902).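 Also: lower survival reflects blocked streptokinase promoter driving kanamycin resistance gene.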
Regarding `N=c1c2c(-c3ccccc3)c(-c3ccccc3)oc2ncn1Cc1ccco1`, the EC50 was 3.27 µM.

Consider `COc1ccc2cc3c(N)nn(C(=O)C4CCC(C(C)(C)C)CC4)c3nc2c1` (stereo not given), for which the EC50 was 1.95 µM.

Take `CCCc1ccc(-c2cc(C(=O)N/N=C/c3ccc([N+](=O)[O-])o3)c3ccccc3n2)cc1`: the 50% effective concentration (EC50) was 1.74 µM.

As for `Cc1ccc(S(=O)(=O)N(C)CC(=O)N2CC(C)OC(C)C2)cc1` (stereo not given), the EC50 is > 15 µM (inactive).

As to `Brc1ccc(C2C3=C(Nc4ncnn42)c2ccccc2OC3c2ccncc2)cc1` (stereo not given), the EC50 was 10.1 µM.

Regarding `Cc1cc(C(F)F)nn1CC(=O)NC1C(=O)N2C(C(=O)O)=C(CSc3nnnn3C)CSC12` (stereo not given), the EC50 was less than 0.06 µM.

As to `COc1ccc(C#Cc2ccc3c(=O)c4ccccc4n(C)c3c2)cc1`, the EC50 is 13.9 µM.

Take `Cc1c(C)n(Cc2ccc(F)cc2)c2ccc(C(=O)N3CCN(c4ccccn4)CC3)cc12`: the EC50 was 6.11 µM.

With `O=C(CSc1nnc(CNC(=O)c2ccc(F)cc2)o1)NCc1ccccc1Cl`, the EC50 was > 15 µM (inactive).

For `Cc1ccnn2c(-c3ccccc3)c3c(=O)n(C)c(=O)n(C)c3c12`, the EC50 was > 15 µM (inactive).

Turning to `NC1CCN(c2c(F)cc3c(=O)c(C(=O)O)cn(C4CC4)c3c2Cl)C1` (stereo not given), the EC50 is 0.064 µM.

`Cc1cc(C(=O)OC(C(=O)Nc2cccc(C(F)(F)F)c2)c2ccccc2)c(C)o1` (stereo not given): the EC50 was 10.1 µM.

In the case of `FC(F)(F)c1cccc(NC(=S)Nc2ccc(Cl)cc2Cl)c1`, the EC50 is 2.83 µM.

For the compound `COc1ccc(C(=O)Nc2sc(C)c(-c3ccccc3)c2C#N)cc1OC`, the EC50 was 13.3 µM.

Turning to `O=C1NC(=O)/C(=C\c2ccccc2OCc2ccccc2)S1`, the EC50 was 10.3 µM.

As for `COc1ccc(NC(=S)N=Nc2c(O)[nH]c3ccccc23)cc1`, the EC50 is 1.09 µM.

In the case of `CN(C)c1nc(SCc2ccccc2Cl)nc2c1CCCC2`, the EC50 was 6.27 µM.

Regarding `C(=N\Nc1ncnc2sc3c(c12)CCC3)/c1cccs1`, the EC50 is 10.2 µM.

`CCc1c(C2(O)CCCCC2)[nH]c2c(C(=O)OC)cc(Cl)cc12`: the EC50 was 4.12 µM.

As for `Cn1c(O)c(N=Nc2nc(-c3ccccc3)cs2)c2ccccc21`, the EC50 is 1.2 µM.

On to `O=C(O)c1ccc(N/N=C/c2ccc(-c3ccc(Cl)cc3Cl)o2)cc1`, for which the EC50 was 1.94 µM.

For `O=C(CSc1nnc(-c2ccc3c(c2)OCO3)o1)Nc1ncc(C(F)(F)F)cc1Cl`, the EC50 was 0.856 µM.

`CCC(=O)N1N=C(c2c(O)n(C)c(=O)n(C)c2=O)CC1c1ccccc1` (stereo not given): the EC50 was 2.42 µM.

Take `C[C@]12CCC(O)CC1CCC1C2CC[C@]2(C)C(c3cc(C(F)(F)F)n[nH]3)CCC12` (stereo not given in full): the EC50 is 1.9 µM.

Turning to `COc1cc(O)c(CC=C(C)C)c(O)c1C(=O)CCc1ccc(O)cc1`, the EC50 was 2.76 µM.

With `O=C(NC(Cc1c[nH]c2ccccc12)C(=O)N/N=C/c1cccc2ccccc12)c1cccs1` (stereo not given), the EC50 is 5.37 µM.

`O=C(NNC1=Nc2ccccc2SC1)c1ccc(F)cc1`: the EC50 was 6.87 µM.

Turning to `O=C(NC(NC(=S)Nc1c(Cl)cc(Cl)cc1Cl)C(Cl)(Cl)Cl)OCc1ccccc1` (stereo not given), the EC50 is 0.978 µM.

In the case of `O=C(Cn1nc2ccccc2n1)N/N=C/c1cc([N+](=O)[O-])ccc1O`, the EC50 was 0.73 µM.

As to `COc1cc(/C=N\NC(=O)c2ccc(Cn3cc(Br)c([N+](=O)[O-])n3)o2)cc(OC)c1O`, the EC50 was 4.97 µM.

Turning to `O=C(N/N=C/c1c(O)n(C2CCCCC2)c(=S)[nH]c1=O)c1ccccc1`, the EC50 was 0.659 µM.

Regarding `Oc1ccccc1N=Cc1c(O)ccc2oc3c(c12)CCCC3`, the EC50 was 5.52 µM.

On to `CCCc1ccc(Oc2cn[nH]c2-c2ccc(O)c(C)c2O)cc1`, for which the EC50 was 1.8 µM.

Turning to `Cc1ccc(NC(=S)NNC(=S)Nc2cccc(C(F)(F)F)c2)cc1`, the EC50 was 2.04 µM.

On to `Brc1ccc2[nH]c3c(N4CCc5ccccc5C4)ncnc3c2c1`, for which the EC50 is 6.22 µM.

For `Cc1ccc(-c2cc(-c3ccccc3)nc(N(C)N)n2)cc1`, the EC50 is 6.06 µM.

As for `CCCCNc1c2c3c(cccc3n(C)c1=O)C(=O)c1ccccc1-2`, the EC50 was 6.26 µM.

As for `CCCCCCCCCCCCn1ccc(=N)cc1`, the EC50 is 4.1 µM.

Turning to `CCn1cc(CN2CCC(n3nccc3NC(=O)Cc3ccccc3)CC2)cn1`, the EC50 is > 15 µM (inactive).

For `Cc1nnc(NC(=O)c2ccc(S(=O)(=O)N3CC(C)CC(C)C3)cc2)o1` (stereo not given), the EC50 is 5.82 µM.

On to `Cc1nn(Cc2ccc(Cl)cc2Cl)c(C)c1NC(=O)NC12CC3CC(CC(C3)C1)C2`, for which the EC50 is 14.2 µM.

As to `Cc1ccc(NC2=C/C(=N\S(=O)(=O)c3cccs3)c3ccccc3C2=O)c(C)c1`, the 50% effective concentration (EC50) is 1.66 µM.

As for `O=[N+]([O-])c1cccc(/C=C/c2ccc3cccc(O)c3n2)c1`, the EC50 was 2.25 µM.

Regarding `O=C(Nc1cccc(F)c1)N1CCCCCC1`, the EC50 is > 15 µM (inactive).

With `CCN(c1ccc(C)cc1C)S(=O)(=O)c1nnc(NC(=O)c2ccco2)s1`, the EC50 is 4.2 µM.

For the compound `O=C(NC(=S)Nc1ccc(Cl)cn1)C(c1ccccc1)c1ccccc1`, the EC50 was 3.43 µM.

With `CCc1ccccc1OCC(=O)Nc1nc(-c2cccnc2)cs1`, the EC50 is 1.05 µM.

Consider `CC(/C=C1\SC(=S)N(NS(=O)(=O)c2ccc(C)cc2)C1=O)=C\c1ccccc1`, for which the half-maximal effective concentration (EC50) is 2.88 µM.

`COc1ccc(CCCC(=O)N/N=C/c2cccc(OC)c2O)cc1C`: the EC50 was 1.66 µM.

As for `CCOC(=O)N1CCC(N2Cc3cccc(C(=O)Nc4ccc(F)cc4)c3C2=O)CC1`, the EC50 is 5.9 µM.

Turning to `O=[N+]([O-])c1ccc(O)c(-c2nc(-c3ccccc3)c(-c3cccs3)[nH]2)c1`, the EC50 was 0.979 µM.

Turning to `COc1ccc(NC2=NCC(Cc3ccc(Br)cc3)S2)cc1` (stereo not given), the EC50 was 11.9 µM.

`Cc1nc(N/N=C\c2ccc3c(c2)OCO3)sc1C`: the EC50 was 4.63 µM.

For `COc1ccc(C(=O)NNC(=S)NC(=O)c2ccccc2)cc1`, the EC50 was 0.995 µM.

With `COc1ccc(NC(=O)CSc2ccc3nnc(-c4ccccn4)n3n2)c(OC)c1`, the EC50 is > 15 µM (inactive).

Take `CC1CCN(c2nc(-c3ccc(F)cc3)cc(C(F)(F)F)n2)CC1`: the EC50 was 1.71 µM.

On to `Cc1ccc(C)c(CSC2=NCCN2S(=O)(=O)c2ccccc2)c1`, for which the EC50 is 15.7 µM.

In the case of `CCCN(CC(=O)Nc1ccccc1OC)C(=O)c1ccncc1`, the EC50 is > 15 µM (inactive).

`COc1ccc(/C=c2\s/c(=C/C(=O)c3ccc(C)cc3)[nH]c2=O)cc1OC`: the EC50 is 9.28 µM.

Consider `O=[N+]([O-])/C=C/c1ccc2c(ccn2Cc2ccccc2)c1`, for which the EC50 was 3.04 µM.

Regarding `CCCC(O)(c1ccc(Br)cc1)C(CN1CCOCC1)c1ccc(Cl)cc1` (stereo not given), the EC50 was 10.1 µM.

In the case of `Cc1sc2ncnc(N3CCC(C(=O)Nc4ccc(Cl)cc4Cl)CC3)c2c1C`, the concentration for a half-maximal effect (EC50) is 11.2 µM.

As for `O=C(OCc1ccc(-c2ccccc2)cc1)c1cccc(O)c1`, the EC50 is 6.29 µM.

In the case of `CC12CCC(C(=O)N(CSC(=S)N/N=C\c3ccccc3O)C1=O)C2(C)C` (stereo not given), the EC50 is 2.55 µM.

With `Cc1cc(N2C(=O)C(O)=C(C(=O)c3cc4ccccc4o3)C2c2ccc(Br)cc2)no1` (stereo not given), the EC50 was 1.24 µM.

In the case of `CCc1nnc(NC(=O)c2ccc(S(=O)(=O)N(C)c3ccccc3)cc2)o1`, the EC50 was 4.71 µM.

Take `Cc1nnc(SCC2=C(C(=O)O)N3C(=O)C(NC(=O)Cn4nc(C(F)F)c(Cl)c4C)C3SC2)s1` (stereo not given): the EC50 is less than 0.06 µM.

Consider `Cc1cc(Oc2ccc(Cl)cc2)nc(-c2ccccc2O)n1`, for which the EC50 was > 15 µM (inactive).

Take `CCc1sc(N(C(=O)Cc2ccccc2)c2ccc(F)cc2)nc1-c1ccccc1`: the EC50 is 2.54 µM.

Turning to `COc1cc2ccccc2cc1C(=O)NC(=S)Nc1ccc(C(=O)O)cc1`, the EC50 is 4.44 µM.

Regarding `CCN(CC)C(=S)SCC(=O)Nc1nc(-c2ccccc2)c(-c2ccccc2)o1`, the EC50 was 1.26 µM.

`O=C(N/N=C(\c1ccccc1)c1cccnc1)c1cccc(F)c1`: the EC50 is 3.49 µM.

Consider `N/C(=N\N=C/c1ccc(Br)cc1)N/N=C\c1ccc(Br)cc1`, for which the EC50 was 3.8 µM.

`Cc1ccc(Oc2nc(-c3ccccn3)nc3ccccc23)cc1`: the EC50 was less than 0.06 µM.

For the compound `CC[n+]1c(/C=C2\Sc3ccccc3N2C)ccc2cccc(C)c21`, the EC50 was 3.84 µM.

As to `O=S(=O)(c1ccc(F)cc1)c1nc(-c2ccccc2)oc1N1CCOCC1`, the EC50 was > 15 µM (inactive).

On to `Cc1cc(/C=C2\SC(=S)N(C)C2=O)c(C)n1-c1ccc(O)cc1`, for which the EC50 is 2.09 µM.

With `COc1cccc(C(=O)NC(=S)Nc2ccccc2N2CCCCC2)c1`, the EC50 is > 15 µM (inactive).

`COc1ccc(-c2cc3nc4ccccc4n3c(N)c2C#N)cc1`: the EC50 was 4.21 µM.

As for `COc1cccc(-c2coc3c(C)c4oc(=O)c(CCC(=O)O)c(C)c4cc23)c1`, the EC50 was 3.73 µM.

Turning to `c1ccc(-c2nc(N3CCCCCC3)nc(-n3ccnc3)n2)cc1`, the EC50 was 2.41 µM.

Turning to `O=C(NC(=S)N1CCN(c2nc(-c3ccccc3)cs2)CC1)c1cncc(Br)c1`, the EC50 was 1.2 µM.

On to `Cc1ccc(-c2csc3ncnc(NS(=O)(=O)c4ccc(Cl)cc4)c23)cc1`, for which the EC50 is 6.82 µM.

For `CCOc1ccc(-c2nnc(NC(=O)c3ccc(OCC(C)C)c(OC)c3)o2)cc1`, the EC50 was 0.347 µM.

In the case of `Cc1cc(C)cc(NC(=S)NCCSc2ccc(Cl)cc2)c1`, the EC50 is 13.5 µM.

With `CCOC(=O)c1nn(-c2cccc(OC)c2)c2nc(Nc3ccccc3)cc(=O)n12`, the EC50 is 4.15 µM.

Turning to `Cc1ccc2c(Cl)cc(Cl)c(OCC(=O)NC(C)(C)C)c2n1`, the EC50 is 3.14 µM.

Take `CC(=O)Nc1ccc(C2C(=O)c3ccccc3C2=O)cc1`: the EC50 is > 15 µM (inactive).

With `O=C(NCc1nc(-c2ccc(C(F)(F)F)cc2)no1)Nc1cc(Cl)cc(Cl)c1`, the EC50 was 2.31 µM.

For the compound `O=C(CNC(=O)c1ccccc1Br)N/N=C\c1cc([N+](=O)[O-])cc(Br)c1O`, the EC50 is 8.11 µM.

Take `N#C/C(=C(/O)c1ccc2c(c1)OCO2)c1nc2cc(C(F)(F)F)ccc2s1`: the EC50 was 2.43 µM.

As for `NC(=O)N=Nc1c2[nH]c3ccccc3nc-2c2ccccc12`, the concentration giving a half-maximal response (EC50) is 5.32 µM.

On to `COc1ccc2ncc(S(=O)(=O)c3ccccc3)c(N3CCN(c4ccccc4)CC3)c2c1`, for which the EC50 was 3.19 µM.

Take `CCOC(=O)/C(=N/Nc1ccccc1)c1csc(Nc2ccccc2)n1`: the EC50 is 3.22 µM.

For `Cc1ccc2nc(N3C(=O)C(O)=C(C(=O)c4ccco4)C3c3cccs3)sc2c1` (stereo not given), the EC50 is 2.1 µM.

As usually defined, the EC50 is the concentration that produces a half-maximal response.

The values are drawn from PubChem BioAssay AID1902 (Broad Institute, 2009).
